From patent publication US9359298B2, “Cajanine structure analogous compound, preparation method and use” (INSTITUTE OF MEDICINAL BIOTECHNOLOGY, CHINESE ACADEMY OF …, priority 2011, dated 2016)
Converted amounts (≈) assume the structure as drawn. Where two headings read alike, the source gives them in different places.

How the values were obtained:
Format in all cases: cell-based
[1] = tested on: PC12 cells; assay: Neuroprotective activity assay, serum-deprived injury to PC12 cells (MTT); conditions: for viability at 10 µM: Rattus norvegicus, PC-12, 48 h, 10 μM test compound, 48 h, Control 100.0 ± 9.2, Model 69.3 ± 4.1, read-out: serum-deprived (surviving PC12 cells, MTT 570 nm)
In short: (§1)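 PC12 cells on poly-lysine plated 24 h, then injured 48 h by serum-free DMEM or 4 μM rotenone with 10 μM test compound present during injury. Viability read by MTT (4 h), absorbance 570 nm.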

[2] = tested on: PC12 cells; assay: Neuroprotective activity assay, rotenone injury to PC12 cells (MTT); conditions: for viability at 10 µM: Rattus norvegicus, PC-12, 48 h, 10 μM test compound, 4 μM rotenone, 48 h, Control 100.0 ± 8.9, Model 73.2 ± 7.8, read-out: rotenone (surviving PC12 cells, MTT 570 nm)
In short: as §1

[3] = tested on: Influenza A virus (hanfang359/95); assay: Determination of anti-influenza virus activity (CPE in MDCK cells); conditions: for IC50: Influenza A virus, MDCK, 36 h; for anti-influenza virus activities compared with the lead compound cajanine: statement in words
[4] = tested on: HIV-1 III B virus; assay: Anti-HIV activity assay (P24 antigen in MT-4 cells); conditions: for IC50: Human immunodeficiency virus 1, MT4, 96 h, MT-4 cells, HIV-1 III B 100TCID50, 96 h, P24 antigen, read-out: HIV IC50
[5] = tested on: HCV; assay: Anti-hepatitis C virus (HCV) activity assay (HCV RNA in Huh7.5 cells); conditions: for EC50: Hepatitis C virus, Huh7.5, 72 h, Huh7.5 cells, 72 h, HCV RNA by RT-PCR, Reed-Muench, read-out: HCV EC50
Description: Inoculate Huh7.5 cells into 96-well plates to a density of 3×10^4 cells/cm^2, culture for 24h, infect the cells with 45 IU/cell HCV supernatant, meanwhile, add drug solutions or solvent control for treatment.

[6] = tested on: Coxsackie virus B6; assay: Coxsackie virus activity assay (CPE in Vero cells); conditions: Vero
[7] = read-out: COX-B6 IC50, Vero cells, about 100TCID50, CPE, Reed-Muench

Structure (SMILES) | viability at 10 µM [1] [%] | viability at 10 µM [2] [%] | IC50 [3] [µg/mL] | anti-influenza virus activities compared with the lead compound cajanine [3] | IC50 [4] [µg/mL] | EC50 [5] [µg/mL] | IC50 [6, 7] [µg/mL] | protective effect on serum-deprived injury to PC12 cells ([1]; statement in words) | protective effect on rotenone injury to PC12 cells ([2]; statement in words) | IC50 ([6]; read-out: COX-B6 IC50) [µg/mL] | anti-HIV viral activity ([4]; statement in words) | anti-HCV viral activity ([5]; statement in words)
COc1cc(/C=C/c2ccccc2)cc(O)c1CCC(C)C [Compound 10w, 2-isopentyl-3-methoxy-5-[(E)-styryl]phenol] | 79.1 ± 4.6 | 78.2 ± 5.8 | 0.53 (≈ 1.79 µM) | significantly stronger than the lead compound cajanine | 0.75 (≈ 2.53 µM) | 2.59 (≈ 8.74 µM) | 2.45 (≈ 8.27 µM) |  |  |  |  | 
COc1cc(/C=C/c2ccccn2)cc(O)c1CC=C(C)C [Compound 10x, 2-isopentenyl-3-methoxy-5-[(E)-2-(pyrid-2-yl)ethenyl]phenol] | 78.9 ± 4.6 | 78.9 ± 5.4 | 0.09 (≈ 0.305 µM) | significantly stronger than the lead compound cajanine | 1.09 (≈ 3.69 µM) | 0.93 (≈ 3.15 µM) | 0.42 (≈ 1.42 µM) |  |  |  |  | 
COc1cc(/C=C/c2cc(OC)c(OC)c(OC)c2)cc(O)c1CC=C(C)C [Compound 10y, 2-isopentenyl-3-methoxy-5-[(E)-3,4,5-trimethoxystyryl]phenol] | 89.1 ± 5.4 | 89.5 ± 2.5 | 0.13 (≈ 0.338 µM) | significantly stronger than the lead compound cajanine | 1.66 (≈ 4.32 µM) | 1.39 (≈ 3.62 µM) | 2.58 (≈ 6.71 µM) |  |  |  |  | 
COc1ccnc(/C=C/c2cc(O)c(CC=C(C)C)c(OC)c2)c1 [Compound 10z, 2-isopentenyl-3-methoxy-5-[(E)-2-(4-methoxypyrid-2-yl)ethenyl]phenol] | 84.6 ± 3.9 | 87 ± 5.1 | 0.32 (≈ 0.983 µM) | significantly stronger than the lead compound cajanine | 2.83 (≈ 8.7 µM) | 1.19 (≈ 3.66 µM) | 0.84 (≈ 2.58 µM) |  |  |  |  | 
COC(=O)c1c(O)c(CC=C(C)C)c(OC)c(Cl)c1/C=C/c1ccccc1 [Compound 12, methyl 2-hydroxy-3-isopentenyl-4-methoxy-5-chloro-6-[(E)-styryl]benzoate] | 60.2 ± 5.1 | 74.5 ± 3.2 | 6.17 (≈ 15.9 µM) |  | 8.17 (≈ 21.1 µM) | 6.87 (≈ 17.8 µM) | > 6.17 |  |  |  |  | 
COC(=O)c1c(/C=C/c2ccccc2)cc(OC)c(CC=C(C)C)c1OC [Compound 14, methyl 2,4-dimethoxy-3-isopentenyl-6-[(E)-styryl]benzoate] | 69.7 ± 5.6 | 73.7 ± 8.5 | > 2.06 |  | 1.32 (≈ 3.6 µM) | 1.77 (≈ 4.83 µM) | 1.6 (≈ 4.37 µM) |  |  |  |  | 
COc1cc(/C=C/c2ccccc2)c(C(=O)O)c(OC)c1CC=C(C)C [Compound 15, 2-methoxy-3-isopentenyl-4-methoxy-6-[(E)-styryl]benzoic acid] | 74.1 ± 2.5 | 83.1 ± 5.7 | > 0.23 |  | 1.43 (≈ 4.06 µM) | 0.83 (≈ 2.36 µM) | > 2.06 |  |  |  |  | 
COC(=O)c1c(O)cc(OC)c(CC=C(C)C)c1/C=C/c1ccccc1 [Compound 18, methyl 2-hydroxy-4-methoxy-5-isopentenyl-6-[(E)-styryl]benzoate] | 77.8 ± 6.3 | 74.9 ± 2.9 | > 18.5 |  | 0.34 (≈ 0.965 µM) | 8.51 (≈ 24.1 µM) | > 6.17 |  |  |  |  | 
COc1cc(/C=C/Cc2ccccc2)cc(OC)c1 [Compound 21a, 1,3-dimethoxy-5-[(E)-3-phenylpropen-1-yl]benzene] | 81.2 ± 2.4 | 80.5 ± 2.3 | 1.32 (≈ 5.19 µM) |  | 1.1 (≈ 4.33 µM) | 2.83 (≈ 11.1 µM) | 4.23 (≈ 16.6 µM) |  |  |  |  | 
Oc1cc(O)cc(/C=C/Cc2ccccc2)c1 [Compound 21b, 1,3-dihydroxy-5-[(E)-3-phenylpropen-1-yl]benzene] | 74.6 ± 3.5 | 78.9 ± 6.8 | 2.54 (≈ 11.2 µM) |  | 0.88 (≈ 3.89 µM) | 1.47 (≈ 6.5 µM) | 3.26 (≈ 14.4 µM) |  |  |  |  | 
COc1cc(/C=C/c2ccc(OC)c(O)c2)cc(OC)c1 [Compound 21d, 1,3-dimethoxy-5-[(E)-3-hydroxy-4-methoxy-styryl]benzene] | 88.7 ± 6.3 | 89.8 ± 2.8 | 5.42 (≈ 18.9 µM) |  | 0.63 (≈ 2.2 µM) | 3.37 (≈ 11.8 µM) |  | the strongest activities | the strongest activities | 7.98 (≈ 27.9 µM) |  | 
Oc1cc(O)cc(/C=C/c2ccc(O)c(O)c2)c1 [Compound 21e, 1,3-dihydroxy-5-[(E)-3,4-dihydroxystyryl]benzene] | 85.6 ± 4.2 | 87.4 ± 2.5 | 2.38 (≈ 9.74 µM) |  | 6.33 (≈ 25.9 µM) | 2.06 (≈ 8.43 µM) | 4.86 (≈ 19.9 µM) |  |  |  |  | 
COc1cc(/C=C(\C)c2cc(O)cc(O)c2)cc(OC)c1 [Compound 21g, 1,3-dimethoxy-5-[(E)-2-(3,5-dihydroxyphenyl)propen-1-yl]benzene] | 80.2 ± 1.5 | 82.3 ± 3.1 | 4.25 (≈ 14.8 µM) |  | 1.27 (≈ 4.44 µM) | 0.9 (≈ 3.14 µM) | 6.84 (≈ 23.9 µM) |  |  |  |  | 
C/C(=C\c1cc(O)cc(O)c1)c1cc(O)cc(O)c1 [Compound 21h, 1,3-dihydroxy-5-[(E)-2-(3,5-dihydroxyphenyl)propen-1-yl]benzene] | 74.8 ± 2.6 | 71.2 ± 3.8 | 5.84 (≈ 22.6 µM) |  | 5.28 (≈ 20.4 µM) | 4.46 (≈ 17.3 µM) | 6.98 (≈ 27 µM) |  |  |  |  | 
COc1cc(/C=C/c2cc(O)c(O)c(O)c2)cc(OC)c1 [Compound 21j, 1,3-dimethoxy-5-[(E)-3,4,5-trihydroxystyryl]benzene] | 69.3 ± 2.5 | 75.6 ± 4.6 | 0.98 (≈ 3.4 µM) |  | 1.04 (≈ 3.61 µM) | 1.33 (≈ 4.61 µM) | 1.34 (≈ 4.65 µM) |  |  |  |  | 
Oc1cc(O)cc(/C=C/c2cc(O)c(O)c(O)c2)c1 [Compound 21k, 1,3-dihydroxy-5-[(E)-3,4,5-trihydroxystyryl]benzene] | 74.5 ± 5.8 | 71.3 ± 8 | 0.54 (≈ 2.07 µM) | significantly stronger than the lead compound cajanine | 10.3 (≈ 39.7 µM) | 8.36 (≈ 32.1 µM) | 0.78 (≈ 3 µM) |  |  |  |  | 
COc1cc(/C=C/c2ccccc2)c(C(=O)n2ccnc2)c(O)c1CC=C(C)C [Compound 22, (E)-(2-hydroxy-3-isopentenyl-4-methoxy-6-styrylphenyl)(1H-imidazol-1-yl)ketone] | 87.8 ± 2.9 | 85.6 ± 1.6 | 1.25 (≈ 3.22 µM) |  | 0.35 (≈ 0.901 µM) | 0.68 (≈ 1.75 µM) | 2.37 (≈ 6.1 µM) |  |  |  |  | 
COc1cc(/C=C/c2ccccc2)c(C(=O)NC(N)=O)c(O)c1CC=C(C)C [Compound 23a, N-aminoformyl-2-hydroxy-3-isopentenyl-4-methoxy-6-[(E)-styryl]benzamide] | 87.9 ± 5.8 | 85.6 ± 8.7 | 0.09 (≈ 0.237 µM) | significantly stronger than the lead compound cajanine | 0.74 (≈ 1.95 µM) | 0.66 (≈ 1.73 µM) | 0.32 (≈ 0.841 µM) |  |  |  | stronger anti-HIV, HCV viral activities | stronger anti-HIV, HCV viral activities
